Source: patent US4451485A, “Treatment of cardio-vascular diseases with 3-(2,2,2-trimethylhydrazinium) propionate dihydrate” (Institu Organicheskogo Sinteza Akademii Nauk Latviiskoi SSR, priority 1981, dated 1984)

How the values were obtained:
Assay type in all cases: in vivo
[1] = Vessel wall irritation and allergenic capacity
[2] = Variation of the arrhythmogenic dose of Strophanthin G in rabbits
Method: The effect of the preparation according to the present invention on the variation of the arrhythmogenic dose of Strophanthin G was studied in experiments on rabbits of both sexes with a mass of […] administered with Strophanthin G at a dose of 60 μg/kg into the marginal auricular vein and, after every 5-10 minutes, at a dose of 5-10 μg/kg until the appearance of a stable ventricular extrasystole. In the test groups 20-30 minutes before administration of the glycoside a solution of 3-(2,2,2-trimethylhydrazinium)propionate was prophylactically administered intravenously. The ECG was recorded in II standard lead.
At a further increase of the dose to the preparation to the present invention, its protective effect was increased too.

[3] = Effect on Strophanthin K arrhythmia in narcotized guinea pigs (500 μg/kg)
Method: After the administration of the preparation at a dose of 5 mg/kg the regular synusal rhythm was retained for 12±5 minutes on the average, whereafter arrhythmia was gradually renewed, but it could be again eliminated by a repeated administration of the preparation at a dose of 2-5 mg/kg. In such cases the sinusal rhythm was retained for 15 to 30 minutes and in the majority of tests arrhythmia never renewed. Furthermore, an experiment was carried out on narcotized guinea pigs with a mass of 600-710 g to which Strophanthin -K was administered into the femoral vein at a total dose of 500 μg/kg.
The preparation based on 3-(2,2,2-trimethylhydrazonium)propionate was intravenously administered against the background of arrhythmia in the test group.
The graph illustrates the recording of ECG of a guinea pig.
The effect of compound I on Strophanthin arrhythmia in guinea pigs.

C[N+](C)(C)NCCC(=O)[O-] [3-(2,2,2-trimethylhydrazinium)propionate]
Irritation of vessel walls ([1]; intravenous): does not cause irritation of vessel walls
Allergic responses ([1]; intravenous and peroral, single or up to 30 days): nor does it cause allergic responses
Duration of arrhythmia ([2]; 10 mg/kg intravenously, control 20 ± 10): 12 ± 6 min
Arrhythmogenic dose of Strophanthin ([2]; 10 mg/kg intravenously, control 67 ± 9): 0.09 ± 0.015 mg/kg
Arrhythmogenic dose of Strophanthin ([2]; 25 mg/kg intravenously): 0.1 ± 0.01 mg/kg
Duration of arrhythmia ([2]; 25 mg/kg intravenously): 8 ± 5 min
Arrhythmogenic dose of Strophanthin ([2]; 50 mg/kg intravenously): 0.106 ± 0.012 mg/kg
Duration of arrhythmia ([2]; 50 mg/kg intravenously): 15 ± 8 min
Effect on atrio-ventricular block ([3]; 2-5 mg/kg, timely administration, some cases): possible to also eliminate the atrio-ventricular block
Changes in the complex QRST and atrial fibrillation ([3]; intravenous): The changes in the complex QRST were reduced and the atrial fibrillation disappeared
Effect on ventricular arrhythmia ([3]; intravenous): temporarily arrested the ventricular arrhythmia
Time to arrest of ventricular arrhythmia ([3]; intravenous): 2 to 3 min
